# Patent US20160262390A1, “FIELD APPLICATION OF SUGARS TO INCREASE CROP YIELD” (Minn-Dak Farmers Cooperative, priority 2015, published 2016)
# System: soybeans
# Test: Soybean field trial, Wilkin County, Minnesota (NKS06-H5 seed)
# Format: in vivo
# Description: To test the efficacy of using a sugar based fertilizer composition with soybeans, field trials using Northrup-King NKS06-H5 soybean seed were conducted in Wilkin County, Minnesota. A total of six (6) treatments were conducted. Each treatment was replicated four times arranged in a Randomized Complete Block (RCB) Design in the same field. Each replication consisted of a plot having a width of six (6) rows with twenty two (22) inch row spacing having a row length of twenty five (25) feet. To reduce/eliminate any treatment impacts between adjacent plots, only the four (4) interior rows of each plot were treated and evaluated. With the exception of the treatment program applied to the individual plots, which will be discussed below, conventional commercial growing practices were otherwise followed during the field trials. The individual plots experienced the same growing conditions throughout the season.
# The treatment regimen for the soybeans included one (1) untreated treatment in which no sugar was applied and was used as the control element. One (1) treatment included treatment with Sun Energy Foliar Fertilizer (SE). […] SE was supplied in liquid form and applied by spraying while GS was supplied in a conventional solid form and applied via broadcast spreading. SE is for foliar application and was applied according to the labeling instructions on post-emergent (Post) soybean plants at both the Vegetative Fourth Trifoliolate (V4) and Reproductive Beginning Flowering (R1) stages. GS was applied at a variety of times, both pre-planting (Pre) and on post-emergent (Post) soybean plants at either or the V4 or R1 stages. When applied during pre-planting (Pre), the GS was spread directly on the soil before spring tillage, lightly worked into the ground and followed by planting of the soybean seed into the treated ground. A summary of the plot treatments is contained in Table 4 below:
# Following a conventional growing season, the middle four rows of each plot were harvested and data collected for overall yield (bushels of soybeans/Acre), protein dry basis (%) and oil dry basis (%). Fisher's Exact LSD was the statistical test of choice for mean separation for the individual plots of each treatment. A summary of the soybean harvest data is contained in Table 5 below: […]
# [1] = Replication 3: 100 pounds/Acre Pre + 3 pounds/Acre Post (V4)
# [2] = Replication 4: 3 pounds/Acre Post (R1)
# [3] = Replication 5: 5 pounds/Acre Post (R1)
# [4] = Replication 6: 100 pounds/Acre Pre + 5 pounds/Acre Post (V4)
compound,measurement,setting,value
"OC[C@H]1O[C@@](CO)(O[C@H]2O[C@H](CO)[C@@H](O)[C@H](O)[C@H]2O)[C@@H](O)[C@@H]1O [GS, sucrose]",side-by-side visual comparison of soybean plants with untreated check,"GS 100 pounds/acre prior to planting, 40 and 60 days after planting (FIGS. 7-9)",larger more robust soybean plants
same,Bushels of Soybeans/Acre,[1],52.92 bushels/Acre
same,Yield Increase (Treatment Bushels of Soybeans/Acre)/(Check Bushels of Soybeans/Acre),[1],31.84%
same,Bushels of Soybeans/Acre,[2],35.56 bushels/Acre
same,Yield Increase (Treatment Bushels of Soybeans/Acre)/(Check Bushels of Soybeans/Acre),[2],−11.41%
same,Bushels of Soybeans/Acre,[3],40.14 bushels/Acre
same,Yield Increase (Treatment Bushels of Soybeans/Acre)/(Check Bushels of Soybeans/Acre),[3],0.00%
same,Bushels of Soybeans/Acre,[4],45.28 bushels/Acre
same,Yield Increase (Treatment Bushels of Soybeans/Acre)/(Check Bushels of Soybeans/Acre),[4],12.81%
same,yield increase as compared to the untreated check,every pre-planting (Pre) application of GS,at least 12.8%
same,yield data,only post-emergent application of GS,inconclusive
